Active and inactive are the calls of the source. No cut-off for these calls is given here.
Tests used:
PC-3 [1] = assay: Cytotoxicity against human PC-3 cells assessed as reduction in cell viability at 100 uM measured after 24 hrs by MTT assay relative to control; type: functional
PC-3 [2] = assay: Cytotoxicity against human PC-3 cells assessed as reduction in cell viability at 10 uM measured after 24 hrs by MTT assay relative to control; type: functional
PC-3 [3] = assay: Cytotoxicity against human PC-3 cells assessed as reduction in cell viability at 25 uM measured after 24 hrs by MTT assay relative to control; type: functional
PC-3 [4] = assay: Cytotoxicity against human PC-3 cells assessed as reduction in cell viability measured after 24 hrs by MTT assay; type: functional, cell-based; settings: PC-3, 24 h
PC-3 [5] = assay: Cytotoxicity against human PC-3 cells assessed as reduction in cell viability at 100 uM measured after 24 hrs by MTT assay; type: functional, cell-based
PC-3 [6] = assay: Cytotoxicity against human PC-3 cells assessed as reduction in cell viability at 50 uM measured after 24 hrs by MTT assay relative to control; type: functional

Q: For `O=C(/C=C/c1cnn(-c2ccccc2)n1)c1ccccc1`, which Activity (PC-3 [1]) is on record?
A: 6.38%

Q: And the Activity (PC-3 [2])?
A: 73.62%

Q: And the Activity (PC-3 [3])?
A: 44.7%

Q: What about the IC50 (PC-3 [4]) of the same compound?
A: 28.6 µM

Q: Which Activity (PC-3 [5]) does the source give for `C/C(=C\c1cnn(-c2ccccc2)n1)C(=O)c1ccc(C(F)(F)F)cc1` here?
A: inactive

Q: How did the Activity (PC-3 [5]) turn out when `C/C(=C\c1cnn(-c2ccccc2)n1)C(=O)c1ccccc1` was run?
A: inactive

Q: `O=C(/C=C/c1cnn(-c2ccccc2)n1)c1cccs1` was tested. Which Activity (PC-3 [1]) did it give?
A: 24.23%

Q: What about the Activity (PC-3 [6]) of the same compound?
A: 50%

Q: What about the IC50 (PC-3 [4]) of the same compound?
A: 47.9 µM

Q: For `C/C(=C\c1cnn(-c2ccccc2)n1)C(=O)c1ccc(F)cc1`, which Activity (PC-3 [5]) is on record?
A: inactive

Q: Which Activity (PC-3 [1]) does the source give for `Cc1ccc(C(=O)/C=C/c2cnn(-c3ccccc3)n2)c(C)c1` here?
A: 0%

Q: What about the Activity (PC-3 [6]) of the same compound?
A: 3%

Q: And the Activity (PC-3 [2])?
A: 85.61%

Q: And the Activity (PC-3 [3])?
A: 39.03%

Q: And the IC50 (PC-3 [4])?
A: 15.6 µM

Q: How did the IC50 (PC-3 [4]) turn out when `COc1cc(-c2cccs2)cc(-c2nnn(Cc3ccccc3)c2C)n1` was run?
A: 1.03 µM

Q: With `COc1ccc(C(=O)/C=C/c2cnn(-c3ccccc3)n2)c(OC)c1` as the compound, how does the Activity (PC-3 [1]) read?
A: 5.37%

Q: What about the Activity (PC-3 [2]) of the same compound?
A: 73.03%

Q: What about the Activity (PC-3 [3]) of the same compound?
A: 16.03%

Q: What about the IC50 (PC-3 [4]) of the same compound?
A: 25.6 µM

Q: How did the IC50 (PC-3 [4]) turn out when `COc1cccc2c1C(=O)c1c(O)c3c(c(O)c1C2=O)C[C@@](O)(C(=O)CO)C[C@@H]3O[C@H]1C[C@H](N)[C@H](O)[C@H](C)O1` [DOXORUBICIN] was run?
A: 0.77 µM

From ChEMBL document CHEMBL4699455, “2H-1,2,3-Triazole-chalcones as novel cytotoxic agents against prostate cancer” (Bioorg Med Chem Lett, 2020)
